{"source": "paper PMC12133982", "about": "“Predominant T-cell epitopes of SARS-CoV-2 restricted by multiple prevalent HLA-B and HLA-C allotypes in Northeast Asia” (Frontiers in Immunology, 2025)", "key": {"[1]": {"molecular_target": "HLA-C0702 (Homo sapiens, UniProt P10321)", "experiment": "Competitive peptide binding assay, CIR-C0702"}, "[2]": {"molecular_target": "HLA-C0401 (Homo sapiens, UniProt P10321, A176E/A330V/A35S/A73E/C25G/C350S/D138N/D33S/E299K/L171W/L180R/L218V/M285V/M309V/M331V/N104K/P208H/Q277E/Q291P/R243W/R38W/S101N/S123F/S140F/S297R/S48A/T329A/T363A/V319A/V327M)", "experiment": "Competitive peptide binding assay, CIR-C0401", "conditions": "HMy2.CIR-C0401 cells, reference Cy5-[…], class from inhibition at 5 and 15 μM, flow cytometry MFI; read-out: Binding affinity with HLA-C0401", "description": "(§1) Then, competitive peptide binding assays were performed."}, "[3]": {"molecular_target": "HLA-C0602 (Homo sapiens, UniProt P10321, A176E/A330V/C350S/L171W/L180W/L218V/M285V/M309V/M331V/N104K/P208H/Q277E/Q291P/R121W/S101N/S123Y/S297R/T329A/T363A/V319A/V328M)", "experiment": "Competitive peptide binding assay, CIR-C0602"}, "[4]": {"molecular_target": "HLA-C0102 (Homo sapiens, UniProt P10321, A176E/A330V/A35S/A97T/C350S/D114A/D33F/L171W/L180R/L218V/M285V/M309V/M331V/P208H/Q277E/Q291P/R121W/R243W/R30K/S123C/S140Y/S297R/T329A/T363A/V272M/V319A)", "experiment": "Competitive peptide binding assay, CIR-C0102", "conditions": "for inhibition at 5 µM / inhibition at 15 µM: read-out: Inhibition % of Cy5-reference peptide binding", "description": "as §1"}, "[5]": {"molecular_target": "HLA-C0302 (Homo sapiens, UniProt P10321, A176E/A330V/A97T/C25G/C350S/D114A/D33Y/E197K/L127V/L171W/L218V/M285V/M309V/M331V/P208H/Q277E/Q291P/R243W/R45H/S123Y/S297R/S48A/T118I/T187L/T329A/T363A/V319A)", "experiment": "Competitive peptide binding assay, CIR-C0302", "conditions": "HMy2.CIR-C0302 cells, reference Cy5-[…], class from inhibition at 5 and 15 μM, flow cytometry MFI; read-out: Binding affinity with HLA-C0302", "description": "as §1"}, "[6]": {"molecular_target": "HLA-C0801 (Homo sapiens, UniProt P10321, A176T/A330V/A97T/C350S/D114A/D138N/D33Y/E201K/E299G/L171W/L218V/M285V/M309V/M331V/P208H/Q277E/Q291P/R59Q/S123Y/S140F/S297R/S48A/T329A/T363A/V319A/V328M)", "experiment": "Competitive peptide binding assay, CIR-C0801", "conditions": "HMy2.CIR-C0801 cells, reference Cy5-[…], class from inhibition at 5 and 15 μM, flow cytometry MFI; read-out: Binding affinity with HLA-C0801", "description": "as §1"}, "[7]": {"conditions": "HMy2.CIR-C0102 cells, reference Cy5-[…], class from inhibition at 5 and 15 μM, flow cytometry MFI, read-out: Binding affinity with HLA-C0102"}}, "note": "Read-outs that look alike come from different tables or passages of the source. Peptide text beside a SMILES is read from it."}
{"molecule": "CC[C@H](C)[C@H](NC(=O)[C@H](C)NC(=O)[C@H](CC(C)C)NC(=O)[C@@H](NC(=O)[C@@H](N)C(C)C)[C@@H](C)O)C(=O)N[C@@H](CC(C)C)C(=O)N[C@H](C(=O)N[C@@H](C)C(=O)N[C@@H](CC(C)C)C(=O)O)[C@@H](C)O", "note": "[Epitope M3, VTLAILTAL] (H-VTLAILTAL-OH; N-terminus and C-terminus assumed)", "values": [{"measurement": "IC50", "setting": "[1]", "value": "5 to 15", "unit": "µM"}, {"measurement": "IC50", "setting": "[2]", "value": "< 5", "unit": "µM"}, {"measurement": "IC50", "setting": "[3]", "value": "> 15", "unit": "µM"}, {"measurement": "IC50", "setting": "[4]; [7]", "value": "< 5", "unit": "µM"}, {"measurement": "inhibition at 5 µM", "setting": "[4]", "value": 69.2, "unit": "%"}, {"measurement": "inhibition at 15 µM", "setting": "[4]", "value": 87.4, "unit": "%"}]}
{"molecule": "CC(C)[C@H](NC(=O)[C@H](CC(N)=O)NC(=O)[C@H](Cc1ccc(O)cc1)NC(=O)[C@H](C)NC(=O)[C@@H](N)CCCCN)C(=O)N[C@H](C(=O)N[C@@H](CCC(N)=O)C(=O)N[C@@H](C)C(=O)N[C@@H](Cc1ccccc1)C(=O)O)[C@@H](C)O", "note": "[Epitope M11] (H-KAYNVTQAF-OH)", "values": [{"measurement": "IC50", "setting": "[1]", "value": "5 to 15", "unit": "µM"}, {"measurement": "IC50", "setting": "[5]", "value": "> 15", "unit": "µM"}, {"measurement": "IC50", "setting": "[2]", "value": "> 15", "unit": "µM"}, {"measurement": "IC50", "setting": "[3]", "value": "< 5", "unit": "µM"}, {"measurement": "IC50", "setting": "[4]; [7]", "value": "5 to 15", "unit": "µM"}]}
{"molecule": "CC[C@H](C)[C@H](NC(=O)[C@H](C)NC(=O)CNC(=O)[C@@H](NC(=O)[C@H](Cc1ccc(O)cc1)NC(=O)[C@@H](NC(=O)[C@@H](N)CC(C)C)[C@@H](C)O)[C@@H](C)O)C(=O)N[C@@H](CCCCN)C(=O)N[C@@H](CC(C)C)C(=O)O", "note": "[Epitope M15] (H-LTYTGAIKL-OH; N-terminus and C-terminus assumed)", "values": [{"measurement": "IC50", "setting": "[1]", "value": "> 15", "unit": "µM"}, {"measurement": "IC50", "setting": "[6]", "value": "< 5", "unit": "µM"}, {"measurement": "IC50", "setting": "[5]", "value": "> 15", "unit": "µM"}, {"measurement": "IC50", "setting": "[3]", "value": "< 5", "unit": "µM"}]}
{"molecule": "CC[C@H](C)[C@H](NC(=O)[C@H](CCCNC(=N)N)NC(=O)[C@H](CO)NC(=O)[C@H](CCSC)NC(=O)CNC(=O)[C@@H](N)Cc1ccccc1)C(=O)NCC(=O)N[C@@H](CCSC)C(=O)N[C@@H](CCC(=O)O)C(=O)N[C@H](C(=O)O)C(C)C", "note": "[Epitope M19] (H-FGMSRIGMEV-OH; N-terminus and C-terminus assumed)", "values": [{"measurement": "IC50", "setting": "[1]", "value": "> 15", "unit": "µM"}, {"measurement": "IC50", "setting": "[6]", "value": "> 15", "unit": "µM"}, {"measurement": "IC50", "setting": "[3]", "value": "< 5", "unit": "µM"}, {"measurement": "IC50", "setting": "[4]; [7]", "value": "> 15", "unit": "µM"}]}
{"molecule": "CSCC[C@H](NC(=O)[C@H](CO)NC(=O)[C@H](CCCNC(=N)N)NC(=O)[C@@H](NC(=O)[C@H](CCCNC(=N)N)NC(=O)[C@H](C)NC(=O)[C@H](Cc1ccccc1)NC(=O)[C@H](CC(C)C)NC(=O)[C@@H](N)CCCNC(=N)N)[C@@H](C)O)C(=O)O", "note": "[Epitope M41] (H-RLFARTRSM-OH; N-terminus and C-terminus assumed)", "values": [{"measurement": "IC50", "setting": "[1]", "value": "> 15", "unit": "µM"}, {"measurement": "IC50", "setting": "[6]", "value": "5 to 15", "unit": "µM"}, {"measurement": "IC50", "setting": "[4]", "value": "> 15", "unit": "µM"}, {"measurement": "inhibition at 5 µM", "setting": "[4]", "value": 9.56, "unit": "%"}, {"measurement": "inhibition at 15 µM", "setting": "[4]", "value": 35.7, "unit": "%"}]}
{"molecule": "CC(C)C[C@H](NC(=O)[C@H](C)NC(=O)[C@@H](NC(=O)[C@H](Cc1ccccc1)NC(=O)[C@H](Cc1c[nH]c2ccccc12)NC(=O)[C@H](CO)NC(=O)[C@H](C)NC(=O)[C@@H](NC(=O)[C@@H](N)CC(N)=O)[C@@H](C)O)[C@@H](C)O)C(=O)O", "note": "[Epitope M56, NTASWFTAL] (H-NTASWFTAL-OH; N-terminus and C-terminus assumed)", "values": [{"measurement": "IC50", "setting": "[6]", "value": "5 to 15", "unit": "µM"}, {"measurement": "IC50", "setting": "[3]", "value": "> 15", "unit": "µM"}, {"measurement": "IC50", "setting": "[4]; [7]", "value": "> 15", "unit": "µM"}, {"measurement": "inhibition at 5 µM", "setting": "[4]", "value": 17.3, "unit": "%"}, {"measurement": "inhibition at 15 µM", "setting": "[4]", "value": 46.5, "unit": "%"}]}
{"molecule": "CC[C@H](C)[C@H](NC(=O)[C@H](Cc1ccc(O)cc1)NC(=O)[C@H](CC(C)C)NC(=O)[C@H](Cc1ccccc1)NC(=O)[C@H](CCCNC(=N)N)NC(=O)[C@H](CC(N)=O)NC(=O)[C@H](CCCNC(=N)N)NC(=O)[C@H](CC(N)=O)NC(=O)[C@H](C)NC(=O)[C@@H](N)Cc1ccc(O)cc1)C(=O)O", "note": "[Epitope M73] (H-YANRNRFLYI-OH; N-terminus and C-terminus assumed)", "values": [{"measurement": "IC50", "setting": "[5]", "value": "5 to 15", "unit": "µM"}, {"measurement": "IC50", "setting": "[3]", "value": "< 5", "unit": "µM"}, {"measurement": "IC50", "setting": "[4]; [7]", "value": "> 15", "unit": "µM"}, {"measurement": "inhibition at 5 µM", "setting": "[4]", "value": 23.5, "unit": "%"}, {"measurement": "inhibition at 15 µM", "setting": "[4]", "value": 47.8, "unit": "%"}]}
{"molecule": "CC(C)[C@H](NC(=O)CNC(=O)[C@H](CCCNC(=N)N)NC(=O)[C@@H](NC(=O)[C@H](Cc1ccccc1)NC(=O)[C@H](CO)NC(=O)[C@@H](N)CC(N)=O)[C@@H](C)O)C(=O)N[C@@H](Cc1ccc(O)cc1)C(=O)N[C@@H](Cc1ccc(O)cc1)C(=O)O", "note": "[Epitope M129] (H-NSFTRGVYY-OH; N-terminus and C-terminus assumed)", "values": [{"measurement": "IC50", "setting": "[5]", "value": "> 15", "unit": "µM"}, {"measurement": "IC50", "setting": "[4]; [7]", "value": "> 15", "unit": "µM"}, {"measurement": "inhibition at 5 µM", "setting": "[4]", "value": 11.3, "unit": "%"}, {"measurement": "inhibition at 15 µM", "setting": "[4]", "value": 34.3, "unit": "%"}]}
